One experiment relates to Ramos cells. Kind of experiment: Cytotoxicity in Ramos cells. Type of experiment: cell-based. As to conditions: detection limit EC50=16 μM, read-out: Ramos Cell EC50. As to the method:
(§1) Exemplary compounds described in above Examples were tested for activity against F1F0-ATPase by measuring the ability of the compounds to inhibit ATP synthesis. In addition, the compounds were assessed for cytotoxicity in Ramos cells. Inhibition of F1F0-ATPase activity in synthesizing ATP and cytotoxicity in Ramos cells were measured according to the procedures described in K. M. Johnson et al. Chemistry & Biology 2005, 12, 485-496.

The target of another experiment is T1, F1F0-ATPase (Bos taurus, UniProt P13621).
T1 construct: from tissue
In words: Inhibition of F1F0-ATPase activity in synthesizing ATP. It counts as biochemical. Conditions: inhibition of ATP synthesis; detection limit IC50=16 μM; read-out: ATP Syn IC50. As to the method:
as §1

The structures appear in SMILES notation. Like-named read-outs stand apart in the source and are kept apart here.

A word on the EC50: it is the concentration needed to bring the measured effect to its halfway point. Usually IC50 stands for the concentration that inhibits the measured activity by half. Turning to `CC(C)(C)N/C(=N/C(=O)c1ccc(F)c(F)c1)Nc1n[nH]c2cccnc12` [Compound A-45], the EC50 in the experiment on Ramos cells was over 16 µM. Further, at F1F0-ATPase, the IC50 lay in the range of 5 to 16 µM.
The corresponding values for `CC(C)CN/C(=N/C(=O)c1ccc(F)c(F)c1)Nc1n[nH]c2cccnc12` [Compound A-46] are over 16 µM and over 16 µM.
With `CC(C)(C)CNC(=NC(=O)c1ccc(F)c(F)c1)Nc1n[nH]c2cccnc12` [Compound A-47], the 50% effective concentration (EC50) with Ramos cells (Homo sapiens) is over 16 µM. In addition, the IC50 on F1F0-ATPase was over 16 µM.
As for `COC[C@H](C)N/C(=N/C(=O)c1ccc(F)c(F)c1)Nc1n[nH]c2cccnc12` [Compound A-48], the EC50 in the experiment on Ramos cells is over 16 µM. Further, the IC50 at F1F0-ATPase is over 16 µM.
Consider `CCOCCN/C(=N/C(=O)c1ccc(F)c(F)c1)Nc1n[nH]c2cccnc12` [Compound A-49], for which the EC50 in the experiment on Ramos cells is over 16 µM. Besides, the IC50 on F1F0-ATPase is over 16 µM.
For the compound `CC(C)(C)N/C(=N/C(=O)c1ccc(F)c(F)c1)Nc1n[nH]c2ccc(C(F)(F)F)cc12` [Compound A-50], the EC50 in the experiment with Ramos cells was under 5 µM. Moreover, the IC50 on F1F0-ATPase was under 5 µM.
Regarding `CC(C)CN/C(=N/C(=O)c1ccc(F)c(F)c1)Nc1n[nH]c2ccc(C(F)(F)F)cc12` [Compound A-51], the EC50 in the experiment with Ramos cells was under 5 µM. Besides, the IC50 at F1F0-ATPase is under 5 µM.
In the case of `CC(C)(C)CN/C(=N/C(=O)c1ccc(F)c(F)c1)Nc1n[nH]c2ccc(C(F)(F)F)cc12` [Compound A-52], the EC50 in the experiment on Ramos cells is under 5 µM. The IC50 on F1F0-ATPase was under 5 µM.
Regarding `COC[C@H](C)N/C(=N/C(=O)c1ccc(F)c(F)c1)Nc1n[nH]c2ccc(C(F)(F)F)cc12` [Compound A-53], in the experiment on Ramos cells, the EC50 was over 16 µM. Further, on F1F0-ATPase, the IC50 is under 5 µM.
Consider `CCOCCNC(=NC(=O)c1ccc(F)c(F)c1)Nc1n[nH]c2ccc(C(F)(F)F)cc12` [Compound A-54], for which, in the experiment with Ramos cells (Homo sapiens), the EC50 was over 16 µM. For the same compound, the IC50 at F1F0-ATPase was under 5 µM.
Taken in the same sequence, the figures for `CC1(CNC(=NC(=O)c2ccc(F)c(F)c2)Nc2n[nH]c3ccc(C(F)(F)F)cc23)COC1` [Compound A-55] were over 16 µM and over 16 µM.
Consider `CC(C)CN/C(=N/C(=O)c1ccc(F)c(F)c1)Nc1n[nH]c2c(O)ccc(F)c12` [Compound A-56], for which the EC50 with Ramos cells is under 5 µM. Moreover, the concentration for half-maximal inhibition (IC50) at F1F0-ATPase is under 5 µM.
Consider `CC(C)(C)N/C(=N/C(=O)c1ccc(F)c(F)c1)Nc1n[nH]c2c(C(F)(F)F)cccc12` [Compound A-57], for which, in the experiment with Ramos cells, the EC50 is 5 to 16 µM. The half-maximal inhibitory concentration (IC50) at F1F0-ATPase was over 16 µM.
Regarding `CC(C)CNC(=NC(=O)c1ccc(F)c(F)c1)Nc1n[nH]c2c(C(F)(F)F)cccc12` [Compound A-58], in the experiment on Ramos cells (Homo sapiens), the EC50 fell in the range of 5 to 16 µM. The IC50 on F1F0-ATPase is 5 to 16 µM.
On to `COCC(C)NC(=NC(=O)c1ccc(F)c(F)c1)Nc1n[nH]c2c(C(F)(F)F)cccc12` (stereo not shown) [Compound A-59], for which the EC50 in the experiment with Ramos cells (Homo sapiens) is over 16 µM. Besides, the IC50 at F1F0-ATPase is over 16 µM.
`CCOCCNC(=NC(=O)c1ccc(F)c(F)c1)Nc1n[nH]c2c(C(F)(F)F)cccc12` [Compound A-60]: in the experiment on Ramos cells (Homo sapiens), the EC50 is over 16 µM. The half-inhibitory concentration (IC50) at F1F0-ATPase is 5 to 16 µM.
`CCOCCN/C(=N/C(=O)c1ccc(F)c(F)c1)Nc1n[nH]c2cc(Cl)ccc12` [Compound A-61]: the EC50 in the experiment with Ramos cells is under 5 µM. Moreover, the IC50 on F1F0-ATPase is under 5 µM.
With `CC(C)(C)N/C(=N/C(=O)c1ccc(C(F)(F)F)cc1)Nc1n[nH]c2ncccc12` [Compound A-62], the EC50 in the experiment with Ramos cells was over 16 µM. Besides, the IC50 at F1F0-ATPase is over 16 µM.
Take `CCOCCN/C(=N/C(=O)c1ccc(Cl)cc1)Nc1n[nH]c2cc(Cl)ccc12` [Compound A-63]: in the experiment with Ramos cells, the EC50 was 5 to 16 µM. Also, the IC50 on F1F0-ATPase was under 5 µM.
`COCC(C)NC(=NC(=O)c1ccc(Cl)cc1)Nc1n[nH]c2cc(Cl)ccc12` (stereo not shown) [Compound A-64]: the EC50 with Ramos cells (Homo sapiens) was under 5 µM. At F1F0-ATPase, the 50% inhibitory concentration (IC50) is under 5 µM.
Consider `CCOCCNC(=NC(=O)c1ccc(Cl)cc1)Nc1n[nH]c2cc(C(F)(F)F)ccc12` [Compound A-65], for which the EC50 in the experiment with Ramos cells (Homo sapiens) was under 5 µM. The IC50 on F1F0-ATPase is under 5 µM.
As for `COC[C@H](C)N/C(=N/C(=O)c1ccc(Cl)cc1)Nc1n[nH]c2cc(C(F)(F)F)ccc12` [Compound A-66], in the experiment on Ramos cells, the EC50 is under 5 µM. Besides, at F1F0-ATPase, the IC50 is under 5 µM.
Consider `CC(C)CN/C(=N/C(=O)c1ccc(F)c(F)c1)Nc1n[nH]c2ccc(Br)cc12` [Compound A-67], for which the EC50 in the experiment on Ramos cells was under 5 µM. The half-inhibitory concentration (IC50) at F1F0-ATPase was under 5 µM.
Regarding `CC(C)CN/C(=N/C(=O)c1ccc(F)c(F)c1)Nc1n[nH]c2cc(Br)ccc12` [Compound A-68], the EC50 with Ramos cells was under 5 µM. Further, the IC50 on F1F0-ATPase is under 5 µM.
On to `CC(C)(C)N/C(=N/C(=O)c1ccc(F)c(F)c1)Nc1n[nH]c2ncccc12` [Compound A-69], for which, in the experiment with Ramos cells, the EC50 was over 16 µM. For the same compound, the IC50 at F1F0-ATPase was over 16 µM.
With `CC(C)CN/C(=N/C(=O)c1ccc(F)c(F)c1)Nc1n[nH]c2ncccc12` [Compound A-70], in the experiment with Ramos cells, the EC50 was over 16 µM. Besides, the IC50 on F1F0-ATPase was over 16 µM.
With `CC(C)(C)N/C(=N/C(=O)c1ccc(F)c(F)c1)Nc1n[nH]c2c(F)cccc12` [Compound A-72], the EC50 with Ramos cells is under 5 µM. For the same compound, the IC50 on F1F0-ATPase fell in the range of 5 to 16 µM.
The corresponding values for `CC(C)CNC(=NC(=O)c1ccc(F)c(F)c1)Nc1n[nH]c2c(F)cccc12` [Compound A-73] are under 5 µM and 5 to 16 µM.
In the case of `COC[C@H](C)N/C(=N/C(=O)c1ccc(F)c(F)c1)Nc1n[nH]c2c(F)cccc12` [Compound A-74], the EC50 in the experiment on Ramos cells fell in the range of 5 to 16 µM. For the same compound, the concentration for half-maximal inhibition (IC50) on F1F0-ATPase fell in the range of 5 to 16 µM.
In the case of `CCOCCN/C(=N/C(=O)c1ccc(F)c(F)c1)Nc1n[nH]c2c(F)cccc12` [Compound A-75], the 50% effective concentration (EC50) in the experiment with Ramos cells is over 16 µM. The IC50 at F1F0-ATPase is over 16 µM.
As for `CC(C)N/C(=N/C(=O)c1ccc(F)c(F)c1)Nc1n[nH]c2c(F)cccc12` [Compound A-76], the EC50 in the experiment with Ramos cells was under 5 µM. In addition, the IC50 on F1F0-ATPase was under 5 µM.
Consider `CCOCCCN/C(=N/C(=O)c1ccc(F)c(F)c1)Nc1n[nH]c2c(F)cccc12` [Compound A-77], for which the EC50 with Ramos cells is under 5 µM. For the same compound, the IC50 on F1F0-ATPase was in the range of 5 to 16 µM.
The corresponding values for `COC[C@H](C)N/C(=N/C(=O)c1cccc(Cl)c1)Nc1n[nH]c2cc(Cl)ccc12` [Compound A-78] are under 5 µM and under 5 µM.
The corresponding values for `COC[C@H](C)N/C(=N/C(=O)c1ccc(F)c(F)c1)Nc1n[nH]c2cc(F)ccc12` [Compound A-79] are under 5 µM and under 5 µM.
Taken in the same sequence, the figures for `COC[C@H](C)N/C(=N/C(=O)c1ccc(Cl)cc1)Nc1n[nH]c2cc(F)ccc12` [Compound A-80] were under 5 µM and under 5 µM.
As to `CCOCCN/C(=N/C(=O)c1ccc(F)c(F)c1)Nc1n[nH]c2cc(F)ccc12` [Compound A-81], the EC50 in the experiment on Ramos cells is under 5 µM. For the same compound, on F1F0-ATPase, the half-maximal inhibitory concentration (IC50) was under 5 µM.
Turning to `CCOCCN/C(=N/C(=O)c1ccc(Cl)cc1)Nc1n[nH]c2cc(F)ccc12` [Compound A-82], the EC50 in the experiment with Ramos cells is under 5 µM. The IC50 at F1F0-ATPase is under 5 µM.
For `CC(C)(O)CN/C(=N/C(=O)c1ccc(F)c(F)c1)Nc1n[nH]c2cc(F)ccc12` [Compound A-83], the EC50 in the experiment with Ramos cells was under 5 µM. The IC50 on F1F0-ATPase is under 5 µM.
With `COCC(C)NC(=NC(=O)c1ccc(F)c(F)c1)Nc1n[nH]c2c(Cl)cccc12` (stereo not shown) [Compound A-84], the 50% effective concentration (EC50) in the experiment with Ramos cells (Homo sapiens) was over 16 µM. For the same compound, on F1F0-ATPase, the IC50 lay within 5 to 16 µM.
Taken in the same sequence, the figures for `COCC(C)NC(=NC(=O)c1cccc(Cl)c1)Nc1n[nH]c2cc(F)ccc12` (stereo not shown) [Compound A-85] were over 16 µM and under 5 µM.
`CCOCCN/C(=N/C(=O)c1cccc(Cl)c1)Nc1n[nH]c2cc(F)ccc12` [Compound A-86]: the EC50 in the experiment with Ramos cells lay within 5 to 16 µM. Also, the IC50 on F1F0-ATPase was over 16 µM.
Taken in the same sequence, the figures for `CC(C)(O)CN/C(=N/C(=O)c1cccc(Cl)c1)Nc1n[nH]c2cc(F)ccc12` [Compound A-87] were over 16 µM and over 16 µM.
The corresponding values for `COC[C@H](C)N/C(=N/C(=O)c1ccc(F)c(F)c1)Nc1n[nH]c2cc(C(F)(F)F)ccc12` [Compound A-88] are under 5 µM and over 16 µM.
Taken in the same sequence, the figures for `COC[C@H](C)N/C(=N/C(=O)c1ccc(O)cc1)Nc1n[nH]c2cc(F)ccc12` [Compound A-89] were 5 to 16 µM and 5 to 16 µM.
Take `CC(C)(O)CN/C(=N/C(=O)c1ccc(O)cc1)Nc1n[nH]c2cc(F)ccc12` [Compound A-90]: the EC50 in the experiment on Ramos cells was over 16 µM. Besides, the 50% inhibitory concentration (IC50) at F1F0-ATPase was over 16 µM.
For `CC(C)CN/C(=N/C(=O)c1ccc(O)cc1)Nc1n[nH]c2cc(F)ccc12` [Compound A-91], the EC50 in the experiment on Ramos cells is over 16 µM. Further, the 50% inhibitory concentration (IC50) on F1F0-ATPase lay within 5 to 16 µM.
With `CC(C)(C)N/C(=N/C(=O)c1ccc(O)cc1)Nc1n[nH]c2cc(F)ccc12` [Compound A-92], the EC50 with Ramos cells is under 5 µM. The IC50 at F1F0-ATPase fell in the range of 5 to 16 µM.
The corresponding values for `COC[C@H](C)N/C(=N/C(=O)c1cccc(O)c1)Nc1n[nH]c2cc(F)ccc12` [Compound A-93] are 5 to 16 µM and 5 to 16 µM.
In the case of `CC(C)(O)CN/C(=N/C(=O)c1cccc(O)c1)Nc1n[nH]c2cc(F)ccc12` [Compound A-94], the EC50 in the experiment on Ramos cells lay within 5 to 16 µM. For the same compound, the 50% inhibitory concentration (IC50) at F1F0-ATPase was over 16 µM.
The corresponding values for `CC(C)CN/C(=N/C(=O)c1cccc(O)c1)Nc1n[nH]c2cc(F)ccc12` [Compound A-95] are 5 to 16 µM and under 5 µM.
The corresponding values for `CC(C)(C)N/C(=N/C(=O)c1cccc(O)c1)Nc1n[nH]c2cc(F)ccc12` [Compound A-96] are under 5 µM and under 5 µM.
Regarding `CC(C)(C)NC(=NC(=O)c1cccc(Cl)c1)Nc1n[nH]c2cc(F)ccc12` [Compound A-97], the EC50 with Ramos cells was under 5 µM. Further, on F1F0-ATPase, the IC50 is under 5 µM.
For the compound `CC(C)CNC(=NC(=O)c1cccc(Cl)c1)Nc1n[nH]c2cc(F)ccc12` [Compound A-98], in the experiment with Ramos cells, the EC50 is under 5 µM. Further, the IC50 on F1F0-ATPase was under 5 µM.

For the origin of these results see patent US9920012B2, “Indazole guanidine F1F0-ATPase inhibitors and therapeutic uses thereof” (Lycera Corporation, priority 2012, dated 2018).
